Data as given in a flash point compilation (Sun et al. 2020).

| SMILES | flash point |
| --- | --- |
| CCCCCl [1-Chlorobutane] | -11.0 °C |

remark: another data set of the same source

| SMILES | flash point |
| --- | --- |
| CCCc1ccc(C)cc1 [p -propyltoluene] | 56.4 °C |
| CCCCc1ccc(C)cc1 [1-butyl-4-methylbenzene] | 71.2 °C |
| CCCCCCCc1ccccc1 [heptylbenzene] | 95.5 °C |
| Cc1cc(C)cc(C(C)(C)C)c1 [1-tert -butyl-3,5-dimethylbenzene] | 72 °C |
| CCCCc1cccc(CCCC)c1 [1,3-dibutylbenzene] | 109.2 °C |
| CC(C)(C)Cc1ccccc1 [neopentylbenzene] | 50.1 °C |
| Cc1ccccc1C(C)(C)C [2-tert -butyltoluene] | 61.5 °C |
| CC(C)(C)c1ccccc1 [tert -butylbenzene] | 44.1 °C |
| Cc1cc(C)cc(C)c1 [1,3,5-trimethylbenzene] | 44.1 °C |
| CCc1ccc(C)cc1C [1-ethyl-2,4-dimethylbenzene] | 57.1 °C |
| Cc1ccccc1CC(C)C [1-isobutyl-2-methylbenzene] | 68.7 °C |
| Cc1ccc(C)c(C(C)C)c1 [1,4-dimethyl-2-isopropylbenzene] | 64.7 °C |
| CCc1ccc(C(C)C)cc1 [p -ethylcumene] | 65.8 °C |
| CCc1cccc(C)c1C [1-ethyl-2,3-dimethylbenzene] | 65.1 °C |
| CCc1cccc(CC)c1CC [1,2,3-triethylbenzene] | 79 °C |
| CCCCCCCCc1ccccc1 [octylbenzene] | 107.1 °C |
| CCC(C)(C)c1ccccc1 [2-phenyl-2-methylbutane] | 59.4 °C |
| CCc1cccc(C(C)C)c1 [m -ethylcumene] | 63 °C |
| CCCCc1ccccc1 [butylbenzene] | 58.1 °C |
| CCCc1cccc(C)c1 [m -propyltoluene] | 52 °C |
| CCC(C)Cc1ccccc1 (stereo not given) [(2-methylbutyl)benzene] | 64.1 °C |
| CC(C)(C)c1ccc(C(C)(C)C)cc1 [1,4-di-tert -butylbenzene] | 97.0 °C |
| Cc1ccccc1C [o -xylene] | 30.1 °C |
| CC(C)Cc1ccccc1 [isobutylbenzene] | 50.1 °C |
| CCc1cc(C)cc(C)c1 [1-ethyl-3,5-dimethylbenzene] | 57.4 °C |
| CCCCCCc1ccccc1 [hexylbenzene] | 83.6 °C |
| CC(C)CC(C)Cc1ccccc1 (stereo not given) [(2,4-dimethylpentyl)benzene] | 87.0 °C |
| CCc1cccc(CC)c1 [m -diethylbenzene] | 51.1 °C |
| CCc1c(C)cccc1C [2-ethyl-1,3-dimethylbenzene] | 62.0 °C |
| CCCCc1cccc(C)c1 [1-butyl-3-methylbenzene] | 70.8 °C |

remark: another data set of the same source

| SMILES | flash point |
| --- | --- |
| CCCCCl [1-Chlorobutane] | -9.3 °C |

remark: another data set of the same source

| SMILES | flash point |
| --- | --- |
| CCC(C)(C)c1ccccc1 [2-phenyl-2-methylbutane] | 65 °C |

remark: another data set of the same source

| SMILES | flash point |
| --- | --- |
| c1ccc(Pc2ccccc2)cc1 [DIPHENYLPHOSPHINE] | 110.00 °C |
| CCCCCCCCP(CCCCCCCC)CCCCCCCC [TRIOCTYLPHOSPHINE] | 147.00 °C |
| CCOP(OCC)OCC [TRIETHYLPHOSPHITE] | 54.00 °C |
| C[CH2][Pb]([CH2]C)([CH2]C)[CH2]C [TETRAETHYLLEAD] | 73.00 °C |
| CCCCC(CC)C(=O)[O-].CCCCC(CC)C(=O)[O-].[Ca+2] (stereo not given) [CALCIUM 2-ETHYLHEXANOATE] | 127.00 °C |
| CCCC[O-].CCCC[O-].CCCC[O-].[B+3] [BORON n-BUTOXIDE] | 93.00 °C |
| CCCC[O-].CCCC[O-].CCCC[O-].CCCC[O-].[Ti+4] [TITANIUM n-BUTOXIDE] | 76.00 °C |
| CC[N](CC)[Ta](=[N]C(C)(C)C)([N](CC)CC)[N](CC)CC [TRIS(DIETHYLAMINO)(t-BUTYLIMINO) TANTALUM] | 46.00 °C |
| CC[N-]C.CC[N-]C.CC[N-]C.CC[N-]C.[Zr+4] [ZIRCONIUM TETRAKIS(ETHYLMETHYLAMIDE)] | 10.00 °C |

remark: another data set of the same source

| SMILES | flash point |
| --- | --- |
| CCCCCCCc1ccccc1 [heptylbenzene] | 95 °C |
| CCCCc1ccccc1 [butylbenzene] | 49 °C |
| CC(C)Cc1ccccc1 [isobutylbenzene] | 55 °C |
